Values of other authors as cited in patent US20080014285A1, “METHOD OF TREATING NEURODEGENERATIVE BRAIN DISEASE WITH A COMPOSITE COMPRISING […] NANOPARTICLES AND A […] COMPOUND” (priority 2006, published 2008).

Legend:
[1] = test system: traumatic brain injury; details: administration no more than 12 hours post-trauma
[2] = test system: dopaminergic neurons; details: low dose; PD
[3] = peripheral administration, hypermagnesemia
[4] = systemic administration; patients with intracranial hypertension
[5] = test system: glutamate-induced nitric oxide related neurotoxicity

Compound: [Mg+2] [magnesium]
- brain magnesium homeostasis [1]: restores brain magnesium homeostasis
- motor and cognitive outcome [1]: profoundly improves both motor and cognitive outcome

Compound: VEGF
- neuroprotection of dopaminergic neurons [2]: neuroprotective

Compound: O=S(=O)([O-])[O-].[Mg+2] [magnesium sulfate]
- total and ionized CSF [Mg] [3]: only marginal increases
- CSF ionized magnesium concentration [4]: failed to increase
- increase of plasma magnesium levels [4]: > 50%

Compound: CN(c1nc2ccccc2s1)C1CCN(C[C@H](O)COc2ccc(F)c(F)c2)CC1 [lubeluzole]
- glutamate-induced nitric oxide related neurotoxicity [5]: inhibits
